The values that follow come from PMC6437269, “OXA-48-Mediated Ceftazidime-Avibactam Resistance Is Associated with Evolutionary Trade-Offs” (mSphere, 2019).

Values after ≈ are worked out from the molar mass of the structure shown. Like-named read-outs stand apart in the source and are kept apart here. Some results are limits rather than exact numbers.

In one data set the test system is E. coli MG1655 (MP100). The experiment in a line: microbe, parasite or virus in culture. It is filed as cell-based, Escherichia coli. The procedure:
(§1) For MIC determination, single colonies were suspended in 0.9% saline buffer to a 0.5 McFarland standard and further diluted 1:100 in MH broth. Fifty microliters of the bacterial suspension was loaded onto in-house-designed and premade Sensititre microtiter plates (TREK Diagnostic Systems/Thermo Fisher Scientific, East Grinstead, United Kingdom). The plates were incubated for 20 h at 37°C. Antibiotic susceptibility testing was performed in duplicates.

Data set [1] deals with MP101 (MP100 transformed with p50579417_3_OXA-48). The experiment in a line: MIC determination, MP101 (MG1655 with native OXA-48 plasmid). The class given is cell-based, Escherichia coli.
From the text: Mueller-Hinton (MH) agar and broth were purchased from Thermo Fisher Scientific (East Grinstead, United Kingdom). Luria-Bertani (LB) broth, LB agar, ampicillin, amoxicillin, cefepime, CAZ, imipenem, meropenem, piperacillin, and tazobactam were obtained from Sigma-Aldrich (St. Louis, MO). Nitrocefin was purchased from Merck (Darmstadt, Germany). The characteristics of the clinical E. coli strain 50579417 harboring the OXA-48 plasmid (p50579417_3_OXA-48) have been described previously ([61], [62]). The plasmid p50579417_3_OXA-48 was conjugated into rifampin-resistant E. coli TOP10 and subsequently isolated using a plasmid mini-purification kit (Qiagen, Germany). E. coli MG1655 (DA4201) was electroporated with p50579417_3_OXA-48 as published previously ([63]). Transformants positive for blaOXA-48 were checked by PCR using REDTaq ready mix (Sigma-Aldrich, St. Louis, MO) and preOXA-48 primers ([61]).
as §1

In data set [2] the test system is MP102 (MP101 subjected to CAZ). The data set can be described thus: MIC determination, MP102 (MP101 selected on CAZ). It is filed as cell-based, Escherichia coli. The procedure: (§2) Ten milliliters of an MP101 culture was grown in MH broth at 37°C overnight and then centrifuged for 10 min at 4,000 × g, and the pellet was suspended in 1 ml MH broth. One hundred microliters was plated on MH agar containing increasing concentrations of either CAZ alone or in combination with AVI up to 2 mg/liter. For CAZ-AVI, we utilized the clinical ratio of 4:1, respectively. Colonies growing on the highest concentration were recovered and grown in a fresh overnight culture (MH broth) and subsequently plated on concentrations of CAZ or CAZ-AVI up to 32 mg/liter.
as §1

The test system of data set [3] is MP103 (MP101 subjected to CAZ-AVI). The experiment in a line: MIC determination, MP103 (MP101 selected on CAZ-AVI). The class given is cell-based, Escherichia coli. The procedure: as §2, §1
Another data set concerns E. coli TOP10. The experiment in a line: microbe, parasite or virus in culture. The following applies: Escherichia coli, Table 3, read-out: MIC. It is filed as cell-based. The procedure: as §1
For data set [4], the system named is MP104 (E. coli TOP10 expressing native OXA-48). The data set can be described thus: MIC determination, TOP10 expressing native OXA-48 (MP104). The class given is cell-based. The following applies: Escherichia coli; Table 3; MP104, native OXA-48 in pCR-blunt II TOPO. The procedure:
as §1
For a functional resistance profile, the native and mutated blaOXA-48 genes were cloned in the pCR-blunt II-TOPO vector (Invitrogen, CA) and expressed in E. coli TOP10 (Invitrogen, CA). The PCR product was obtained by Phusion High Fidelity PCR mastermix with High Fidelity buffer (New England Biolabs, MA) and preOXA-48 primers ([61]). Transformants were selected on LB agar plates containing 50 or 100 mg/liter ampicillin. Insertion size was verified by Sanger sequencing using M13 forward (5′-[…]-3′) and reverse (5′-[…]-3′) primers.

Data set [5] concerns MP105 (E. coli TOP10 expressing OXA-48:P68A). The data set can be described thus: microbe, parasite or virus in culture. It is filed as cell-based.
For data set [6], the system named is MP107 (MP100 transformed with p50579417_3_OXA-48-CAZ). The experiment in a line: MIC determination, MP107 (MG1655 with CAZ-adapted plasmid). It is filed as cell-based. The following applies: Escherichia coli; Table 6; MP107, adapted plasmid p50579417-OXA-48-CAZ. The procedure:
as §1

Data set [7] relates to MP108 (MP100 transformed with p50579417_3_OXA-48-CAZ-AVI). The experiment in a line: MIC determination, MP108 (MG1655 with CAZ-AVI-adapted plasmid). It is filed as cell-based. The following applies: Escherichia coli; Table 6; MP108, adapted plasmid p50579417-OXA-48-CAZ-AVI. The procedure: as §1
In data set [8] the target is T1, OXA-48:P68A (Klebsiella pneumoniae, UniProt Q6XEC0, P68A). The experiment in a line: Steady-state enzyme kinetics, OXA-48:P68A. It is filed as biochemical.
Another data set concerns the target T2, OXA-48 (Klebsiella pneumoniae, UniProt Q6XEC0).
T2 construct: made in house
The experiment in a line: biochemical. The following applies: nitrocefin reporter substrate; enzyme and inhibitor incubated 5 min; error = 95% CI.

The target in data set [9] is T1, OXA-48:P68A. The experiment in a line: IC50 with nitrocefin as reporter substrate, OXA-48:P68A. It is filed as biochemical.
The data set “crystal structure” concerns the molecule itself. The experiment in a line: crystal structure.
Where [10] appears, read: substrate hydrolysis, 25°C, pH 7.0, error = 95% CI.

T2 sequence (Q6XEC0 23-265 limits assumed): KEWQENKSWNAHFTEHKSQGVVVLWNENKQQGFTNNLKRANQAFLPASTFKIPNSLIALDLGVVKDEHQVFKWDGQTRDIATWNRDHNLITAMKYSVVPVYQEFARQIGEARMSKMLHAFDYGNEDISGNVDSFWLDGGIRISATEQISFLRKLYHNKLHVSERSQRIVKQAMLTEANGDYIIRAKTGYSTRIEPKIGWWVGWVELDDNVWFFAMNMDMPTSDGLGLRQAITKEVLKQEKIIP

A word on the Km: it is the concentration of substrate that gives half-maximal velocity. As usually defined, the kcat is the maximal rate divided by the concentration of active sites. For the molecule `CC(C)(O/N=C(\C(=O)N[C@@H]1C(=O)N2C(C(=O)[O-])=C(C[n+]3ccccc3)CS[C@H]12)c1csc(N)n1)C(=O)O` [CAZ, ceftazidime], the MIC in the data set with E. coli MG1655 (MP100) (Escherichia coli, MG1655, Table 2, strain MP100, duplicates, read-out: MIC) worked out at 0.25 µg/mL (≈ 0.457 µM); with E. coli MG1655 (MP100) (Table 6, MP100), 0.25 µg/mL (≈ 0.457 µM); in data set [1] (Escherichia coli, Table 2, strain MP101, duplicates, read-out: MIC), 0.25 µg/mL (≈ 0.457 µM); in data set [1] (Table 6, MP101, native plasmid), 0.25 µg/mL (≈ 0.457 µM); in data set [2] (Escherichia coli, Table 2, strain MP102, after two-step CAZ selection), 32 µg/mL; in data set [3] (Escherichia coli, Table 2, strain MP103, after two-step CAZ-AVI selection) it was 32 µg/mL. Also, the MIC in the data set on E. coli TOP10 worked out at 1 µg/mL (≈ 1.83 µM); in data set [4] it was 0.5 µg/mL (≈ 0.915 µM); in [5] (Escherichia coli, Table 3, MP105, OXA-48:P68A in pCR-blunt II TOPO), 16 µg/mL (≈ 29.3 µM); in [6], 16 µg/mL (≈ 29.3 µM); in [7] it was 32 µg/mL (≈ 58.5 µM). Moreover, in [2] (MP102 versus MP101), the “MIC increase after CAZ selection” value turned out to be 128 fold. In addition, the “MIC increase after CAZ-AVI selection” value in [3] (MP103 versus MP101) turned out to be 128 fold. Also, the “MIC increase by P68A substitution” value in data set [5] (MP105 versus native OXA-48 (MP104)) came to 32 fold. Moreover, the “increased catalytic efficiency (kcat/Km)” value at OXA-48:P68A [8] (P68A compared to native OXA-48) is greater than 10 fold. On OXA-48:P68A [8] (setting [10]), the Michaelis constant (Km) turned out to be 220 ± 50 µM. Also, the kcat on OXA-48:P68A [8] (setting [10]) stood at 26 ± 3 s⁻¹.
By IC50 is commonly meant the point on the concentration scale where inhibition reaches its midpoint. `C[C@]1(Cn2ccnn2)[C@H](C(=O)O)N2C(=O)C[C@H]2S1(=O)=O` [Tazobactam, tazobactam]: the half-maximal inhibitory concentration (IC50) on OXA-48 came out at 95 ± 9 µM; against OXA-48:P68A [9] (nitrocefin reporter substrate, enzyme and inhibitor incubated 5 min, error = 95% CI), 4 ± 1 µM. The “reduction in the IC50” value at OXA-48:P68A [9] (P68A compared to native OXA-48, 5 min) is on record as greater than 20 fold.

B1: OXA-48:P68A (enzyme)
chain: KEWQENKSWNAHFTEHKSQGVVVLWNENKQQGFTNNLKRANQAFLAASTFKIPNSLIALDLGVVKDEHQVFKWDGQTRDIATWNRDHNLITAMKYSVVPVYQEFARQIGEARMSKMLHAFDYGNEDISGNVDSFWLDGGIRISATEQISFLRKLYHNKLHVSERSQRIVKQAMLTEANGDYIIRAKTGYSTRIEPKIGWWVGWVELDDNVWFFAMNMDMPTSDGLGLRQAITKEVLKQEKIIP
notes: also called OXA-48:P68A-CAZ; OXA-48:P68A-AVI; source: E. coli Rosetta 2(DE3)/pLysS, purified (>95% purity)
Regarding B1, the binding result in the data set “crystal structure” is reported as “binds”.
